Activity calls are given as the source filed them. No cut-off for these calls is given here.
Tests used:
[1] = test system: MDA-MB-231; assay: Antiproliferative activity against human MDA-MB-231 cells assessed as inhibition of cell growth measured after 48 hrs by MTT assay; type: functional, cell-based; details: MDA-MB-231, 48 h
[2] = test system: MCF7; assay: Antiproliferative activity against human MCF7 cells assessed as inhibition of cell growth measured after 48 hrs by MTT assay; type: functional, cell-based; details: MCF7, 48 h
[3] = Selectivity index, ratio of IC50 for cytotoxicity against human L02 cells to IC50 for antiproliferative activity against human MDA-MB-231 cells; type: toxicity, cell-based; details: L02 cells versus MDA-MB-231 cells, read-out: Ratio IC50
[4] = test system: MDA-MB-231; assay: Induction of ROS production in human MDA-MB-231 cells measured after 24 hrs by DCFH-DA staining based fluorescence microscopic analysis; type: functional, cell-based; details: dose 5-20 nM
[5] = test system: MDA-MB-231; assay: Antiproliferative activity against human MDA-MB-231 cells assessed as induction of ROS production at 20 nM in presence of NAC measured after 24 hrs by MTT assay; type: functional, cell-based
[6] = test system: MDA-MB-231; assay: Induction of apoptosis in human MDA-MB-231 cells assessed as viable cells at 10 nM incubated for 24 hrs by Annexin V-FITC/PI staining based flow cytometric analysis (reference value: 90.1%); type: functional; details: read-out: Activity
[7] = test system: MDA-MB-231; assay: Induction of apoptosis in human MDA-MB-231 cells assessed as viable cells at 20 nM incubated for 24 hrs by Annexin V-FITC/PI staining based flow cytometric analysis (reference value: 90.1%); type: functional; details: read-out: Activity
[8] = test system: MDA-MB-231; assay: Induction of apoptosis in human MDA-MB-231 cells assessed as early apoptotic cells at 10 nM incubated for 24 hrs by Annexin V-FITC/PI staining based flow cytometric analysis (reference value: 4.90%); type: functional
[9] = test system: MDA-MB-231; assay: Induction of apoptosis in human MDA-MB-231 cells assessed as late apoptotic cells at 10 nM incubated for 24 hrs by Annexin V-FITC/PI staining based flow cytometric analysis (reference value: 4.90%); type: functional
[10] = test system: MDA-MB-231; assay: Induction of apoptosis in human MDA-MB-231 cells assessed as late apoptotic cells at 20 nM incubated for 24 hrs by Annexin V-FITC/PI staining based flow cytometric analysis (reference value: 4.90%); type: functional
[11] = test system: MDA-MB-231; assay: Induction of apoptosis in human MDA-MB-231 cells assessed as necrotic cells at 5 nM incubated for 24 hrs by Annexin V-FITC/PI staining based flow cytometric analysis (reference value: 0.11%); type: functional
[12] = test system: MDA-MB-231; assay: Induction of apoptosis in human MDA-MB-231 cells assessed as necrotic cells at 10 nM incubated for 24 hrs by Annexin V-FITC/PI staining based flow cytometric analysis (reference value: 0.11%); type: functional
[13] = test system: MDA-MB-231; assay: Induction of cell cycle arrest in human MDA-MB-231 cells assessed as accumulation of cells at G1 phase at 5 nM measured after 24 hrs by PI staining based flow cytometric analysis (Rvb =58%); type: functional
[14] = test system: MDA-MB-231; assay: Induction of cell cycle arrest in human MDA-MB-231 cells assessed as accumulation of cells at G1 phase at 10 nM measured after 24 hrs by PI staining based flow cytometric analysis (Rvb =58%); type: functional
[15] = test system: MDA-MB-231; assay: Induction of cell cycle arrest in human MDA-MB-231 cells assessed as accumulation of cells at S phase at 5 nM measured after 24 hrs by PI staining by flow cytometric analysis (Rvb =24.1%); type: functional
[16] = test system: MDA-MB-231; assay: Induction of cell cycle arrest in human MDA-MB-231 cells assessed as accumulation of cells at G2/M phase at 5 to 20 nM measured after 24 hrs by PI staining by flow cytometric analysis (Rvb =11.70%); type: functional; details: dose 5-20 nM
[17] = test system: MDA-MB-231; assay: Induction of apoptosis in human MDA-MB-231 cells assessed as increase in cleaved caspase-3 level incubated for 8 hrs by Western blotting analysis; type: functional, cell-based; details: dose 5-20 nM
[18] = test system: MDA-MB-231; assay: Induction of apoptosis in human MDA-MB-231 cells assessed as increase in Bcl2 level incubated for 8 hrs by Western blotting analysis; type: functional, cell-based; details: dose 5-20 nM
[19] = test system: MDA-MB-231; assay: Induction of apoptosis in human MDA-MB-231 cells assessed as increase in cytoplasmic CytC level at 5 to 20 nM incubated for 8 hrs by Western blotting analysis; type: functional, cell-based; details: dose 5-20 nM
[20] = test system: MDA-MB-231; assay: Induction of apoptosis in human MDA-MB-231 cells assessed as increase in cytoplasmic SMAC level at 5 to 20 nM incubated for 8 hrs by Western blotting analysis; type: functional, cell-based; details: dose 5-20 nM
[21] = Toxicity in BALB/C mouse xenografted with human MDA-MB-231 cells assessed as lung damage at 2.5 to 5 mg/kg, ip administered every 2 days measured after 3 weeks by H and E staining based analysis; type: organism-based; details: in vivo, 504 h, dose 2.5-5 mg/kg
[22] = Toxicity in BALB/C mouse xenografted with human MDA-MB-231 cells assessed as spleen damage at 2.5 to 5 mg/kg, ip administered every 2 days measured after 3 weeks by H and E staining based analysis; type: organism-based; details: in vivo, 504 h, dose 2.5-5 mg/kg
[23] = Toxicity in BALB/C mouse xenografted with human MDA-MB-231 cells assessed as heart damage at 2.5 to 5 mg/kg, ip administered every 2 days measured after 3 weeks by H and E staining based analysis; type: organism-based; details: in vivo, 504 h, dose 2.5-5 mg/kg

**Q.** With `CCN(CC)c1ccc2cc(C(=O)OCCCCCOc3cc4ccc(=O)oc4cc3OCCCCCCOc3no[n+]([O-])c3S(=O)(=O)c3ccccc3)c(=O)oc2c1` as the compound, how does the IC50 [1] read?
**A.** The IC50 was 8 nM.

**Q.** And the IC50 [2]?
**A.** The IC50 was 2140 nM.

**Q.** What about the selectivity ratio [3] of the same compound?
**A.** Its selectivity ratio is 1490.

**Q.** What about the Activity [4] of the same compound?
**A.** The Activity was “Dose-Dependent Effect”.

**Q.** And the Activity [5]?
**A.** Its Activity is “inactive”.

**Q.** And the viability at 0.01 µM [6]?
**A.** Its viability at 0.01 µM is 47.3%.

**Q.** And the viability at 0.02 µM [7]?
**A.** The viability at 0.02 µM was 25.2%.

**Q.** What about the Activity [8] of the same compound?
**A.** The Activity was 21.9%.

**Q.** And the Activity [9]?
**A.** The Activity was 30%.

**Q.** And the Activity [10]?
**A.** Its Activity is 39%.

**Q.** And the Activity [11]?
**A.** Its Activity is 0.26%.

**Q.** And the Activity [12]?
**A.** The Activity was 0.83%.

**Q.** And the Activity [13]?
**A.** Its Activity is 55.3%.

**Q.** And the Activity [14]?
**A.** The Activity was 56%.

**Q.** What about the Activity [15] of the same compound?
**A.** The Activity was 29.3%.

**Q.** And the Activity [16]?
**A.** Its Activity is 22.97%.

**Q.** What about the Activity [17] of the same compound?
**A.** The Activity was “Dose-Dependent Effect”.

**Q.** And the Activity [18]?
**A.** Its Activity is “Dose-Dependent Effect”.

**Q.** What about the Activity [19] of the same compound?
**A.** Its Activity is “Active”.

**Q.** And the Activity [20]?
**A.** The Activity was “Active”.

**Q.** What about the Activity [21] of the same compound?
**A.** Its Activity is “Non-Toxic”.

**Q.** And the Activity [22]?
**A.** Its Activity is “Non-Toxic”.

**Q.** What about the Activity [23] of the same compound?
**A.** Its Activity is “Non-Toxic”.

— ChEMBL document CHEMBL5321282, “Design, Synthesis, and Biological Evaluation of Esculetin-Furoxan-DEAC Ternary Hybrids for Anti-Triple Negative Breast Cancer” (J Med Chem, 2023)
